Results: patent US5254686A, “Procaine double salt complexes” (priority 1992, dated 1993)
Where a name gives a salt, the structure may show the parent alone.

Experiments:
[1] = solubility in water and ethanol; type: physicochemical
Description: To 50 mls. of boiling water was added 27.2 grams (0.1 mole) of procaine HCl with stirring until completely dissolved. With stirring was added 12.3 grams (0.1 mole) of nicotinic acid. This mixture was heated at the boiling point until clear. The solution was allowed to cool and a white crystalline precipitate formed which was separated in a Buchner funnel and washed twice with […] of cold distilled water. […] In contrast, a 1:1 molar mixture of procaine HCl and nicotinic acid melts at 145°-150° C.
Into a hot solution of 50 mls of ethanol and 30 mls of water was dissolved 2.72 grams (0.01 mole) of procaine HCl. To this was added 2.44 grams (0.01 mole) of biotin and heat was maintained until the ingredients reacted and the solution cleared. On cooling, crystallization took place easily. White crystalline platelets were filtered, washed and dried.

[2] = 1.3-6.5 moles of caffeine per mole of procaine, aqueous solutions; cited from earlier work
[3] = unlike other mental stimulants such as amphetamines; cited from earlier work
[4] = test system: plasma cholinesterase; settings: once absorbed; into PABA and DEAE; cited from earlier work
[5] = hydrochloride salt form; cited from earlier work

CCN(CC)CCOC(=O)c1ccc(N)cc1 [IV, 1:1 Complex of Procaine HCl and Biotin]
solubility in water and ethanol ([1]; water and ethanol): partly soluble

Cn1c(=O)c2c(ncn2C)n(C)c1=O [caffeine]
inhibition of procaine hydrolysis [2]: shown to inhibit procaine hydrolysis

CCN(CC)CCO [DEAE, diethylaminoethanol]
adverse side effects [3]: no adverse side effects such as depression

CCN(CC)CCOC(=O)c1ccc(N)cc1 [II, 1:1 Complex of Procaine HCl and Nicotinic Acid]
solubility in water and 95% ethanol ([1]; water and 95% ethanol): moderately soluble

CCN(CC)CCOC(=O)c1ccc(N)cc1 [Procaine hydrochloride, procaine hydrochloride]
hydrolysis by plasma cholinesterase [4]: rapidly hydrolyzed
solubility in water [5]: soluble in water
